Source: PMC7587369, “Antitumor Activity of Ruthenium(II) Terpyridine Complexes towards Colon Cancer Cells In Vitro and In Vivo” (Molecules, 2020)

Assays:
[1] = set-up: method as in PMID 26855406; conditions: cited from earlier work
[2] = test system: CT26 (mouse colon carcinoma cell line); assay: MTT assay cytotoxicity, CT26; type: cell-based
Method: (§1) Oxaliplatin was included for comparison as a reference substance, and was tested under the same conditions.
(§2) The cells were harvested from the culture flasks during the exponential growth phase, counted and 5 × 10^3 cells/well were seeded into 96-well culture plates. About 24 h later, after the cell adherence, each well was treated with 100 μL of tested complexes, which had been serially diluted two-fold in medium to concentrations ranging from 300 to 2.3 μM. All cells were incubated at 37 °C in an atmosphere containing 5% CO2 and at absolute humidity for 24 and 72 h. After incubation, the culture medium was removed from each well and MTT solution (5 mg/mL in phosphate buffered saline (PBS)) was added to each well and cells were incubated 4 h under culture conditions. The cell-free supernatants were suctioned off, and dimethyl sulfoxide (DMSO) (150 μL) and glycine buffer (20 μL) were added to dissolve the formazan crystals. The plates were shaken for 10 min. The optical density of each well was determined at 595 nm using a multiplate reader (Zenyth 3100, Anthos Labtec Instruments GmbH, Salzburg, Austria). Experiments were performed in triplicates and repeated in three independent series. The percentage of cell viability was determined by comparison with untreated controls according to formula: % of viable cells = (E − B)/(S − B) × 100, where B is for the background of the medium alone, S is for the total viability/spontaneous death of untreated target cells, and E is for the experimental well. The IC50 values were determined by plotting the percentage viability versus concentration on a logarithmic graph and reading off the concentration at which 50% of cells remained viable relative to the control.

[3] = Interaction with glutathione by 1H NMR in D2O; conditions: 10 mM in D2O, GSH added to equilibrated solution
Method: (§3) These new resonances, which grew at the expense of those of the parent compound, were attributed to the aqua species [Ru(Cl-tpy)(en)(OH2)]^2+ (1aq) and [Ru(Cl-tpy)(dach)(OH2)]^2+ (2aq), respectively (Scheme 1).
The addition of GSH to an equilibrated solution of Ru-1 (10 mM) in D2O induced very slow changes in the ^1H NMR spectrum (Figure 2). A new set of resonances, attributable to the thiolate adduct [Ru(Cl-tpy)(en)(GS-S)] (3), became apparent in the ^1H NMR spectrum after 6 h. […] (4).
(§4) The compounds [Ru(Cl-tpy)(en)Cl][Cl] […] All other chemicals were used as purchased without further purification. NMR spectra were recorded on a Varian Gemini 200 MHz spectrometer. All chemical shifts were referenced to TSP (trimethylsilylpropionic acid) at d = 0.00. All NMR spectra were run at 295 K.

[4] = test system: CT26 cells; assay: LDH release assay, CT26; type: cell-based, mouse; conditions: CT26, 300 μM, 24 h
Method: (§5) The cytotoxicity of used complexes was examined by an In Vitro Toxicology Assay Kit, Lactic Dehydrogenase based (Sigma-Aldrich, St. Lous, MO, USA). Cells were prepared and treated with complexes in the same manner as for the MTT assay. Additional wells were prepared as high control cells were treated with 1/10 volume of LDH Assay Lysis Solution for 45 min. Cells exposed to medium were used as low controls. After treatment, supernatant (50 μL) was transferred to new plate and incubated with an equivalent volume of Lactate Dehydrogenase Assay Mixture (which was prepared by mixing equal volumes of LDH Assay Substrate Solution, LDH Assay Dye Solution, and 1’ LDH Assay Cofactor Preparation. After incubating the plates in the dark for 30 min at room temperature, reaction was terminated by the addition of 10 μL of 1 N HCl to each well and data were acquired by spectrophotometry at 490 nm. The percentage of dead cells was calculated using the formula [44]:% of dead cells = (exp. value − low control)/(high control − low control) × 100.

[5] = test system: HCT116 (human colon carcinoma cell line); assay: MTT assay cytotoxicity, HCT116; type: cell-based
Method: as §1, §2

[6] = test system: HCT116 cells; assay: Annexin V-FITC/PI double staining, flow cytometry, HCT116; type: cell-based, human; conditions: HCT116, IC50 concentrations, 24 h
Method: (§6) For the detection of apoptosis, the Annexin V binding capacity of treated cells was examined by flow cytometry using an Annexin V-fluorescein isothiocyanate (FITC) Detection Kit (BD Pharmingen, San Jose, CA, USA) according to the manufacturer’s protocol. […] Following the incubation, all cells were trypsinized, washed in PBS, centrifuged, and resuspended in 100 μL of ice-cold binding buffer (10× binding buffer: 0.1 M Hepes/NaOH (pH 7.4), 1.4 M NaCl, 25 mM CaCl2) at a concentration of 1 × 10^6/mL. Annexin V-FITC and propidium iodide (PI) were added to the 100 μL of cell suspension and incubated for 15 min at room temperature (25 °C) in the dark. After incubation, 400 μL of 1× binding buffer was added to each tube and stained cells were analyzed within 1 h using a flow cytometer FACS Calibur (BD Biosciences, San Jose, CA, USA). Data were analyzed using FlowJo Software version VX [45]. Measurements were presented as density plots of Annexin V-FITC and PI stainings.

[7] = test system: HCT116 cells; assay: Cell cycle analysis, HCT116; type: cell-based, human; conditions: HCT116, IC50 doses, 24 h
Method: (§7) Both the apoptosis induction and/or cell cycle arrest may reduce the viability of carcinoma cells. Thus, we next investigated the impact of ruthenium(II) terpyridine complexes on possible cell cycle disturbances in colon carcinoma cells.
(§8) Cell cycle analysis was performed with a Vybrant® DyeCycle™ Ruby stain (Thermo Fisher Scientific, Waltham, MA, USA) according to the manufacturer’s instructions. CT26, HCT116, and SW480 cells stained with Vybrant DyeCycle Ruby were analyzed by a Fluorescence-activated cell sorting (FACS) Calibur flow Cytometer (BD Biosciences, San Jose, CA, USA). The cell cycle distribution was analyzed using FlowJo software and the results were presented as histograms.

[8] = test system: HeLa, A549 and MRC-5 cells; set-up: method as in PMID 26855406, PMID 28088012; conditions: previously conducted study; read-out: IC50, range over HeLa, A549 and MRC-5; cited from earlier work
[9] = test system: HCT116 cells; assay: LDH release assay, HCT116; type: cell-based, human; conditions: HCT116, 300 μM, 24 h
Method: as §5

[10] = Behaviour in aqueous solution by 1H NMR in D2O; type: physicochemical; conditions: ambient temperature, forms aqua species
Method: as §3, §4

[11] = test system: SW480 (human colon carcinoma cell line); assay: MTT assay cytotoxicity, SW480; type: cell-based
Method: as §1, §2

[12] = test system: syngeneic CT26 mouse colon carcinoma; assay: Heterotopic CT26 colon carcinoma growth in mice; type: in vivo, BALB/c mice; conditions: 2 mg/kg i.p.; for tumor weights after necropsy versus vehicle-treated mice: four times in total; for tumor growth inhibition (TGI): four times in total from day six, last day of the experiment; for necrosis fields in primary tumor, histology: hematoxylin and eosin
Method: In view of the proven cytotoxic effects of ruthenium(II) terpyridine complexes in vitro, the next goal of the present study was to examine the ability of tested compounds to inhibit murine colon cancer growth and progression in vivo. CT26 cells were heterotopically implanted into the shaved flank of the mice.
Male BALB/c mice of 6–8 weeks of age were used in all experiments. Mice were housed in a temperature-controlled environment (22–24 °C) with a 12 h light–dark cycle and were given standard laboratory food and water ad libitum. […] All experiments were approved (01-8461/2) by, and conducted in accord with, the Guidelines of the Animal Ethics Committee of the Faculty of Medical Sciences of the University of Kragujevac (Kragujevac, Serbia).
The size of primary CT26 colon tumors were assessed morphometrically using electronic calipers in two dimensions. The tumor volume was calculated as follows: tumor volume (mm^3) = (L × W^2)/2, where L is the longest and W the shortest […] of the tumor in millimeters. Results were expressed as means of tumor volumes ± SD. The percent tumor growth inhibition (TGI) was determined according to the formula, TGI(%) = (Vc − Vt)/(Vc − Vo) × 100, where Vc − Vt are the median of control and treated groups at the end of the study and Vo at the start.

[13] = test system: CT26 cells; assay: Cell cycle analysis, CT26; type: cell-based, mouse; conditions: CT26, IC50 doses, 24 h
Method: as §7, §8

[14] = Systemic toxicity in CT26 tumor-bearing mice (body and organ weight, serum biochemistry, histopathology); conditions: 2 mg/kg i.p.
Method: Finally, in order to examine the safety of ruthenium(II) terpyridine complexes in vivo, the mice’s body weight was measured before tumor cell inoculation and at the end of experiment. The toxicity associated with ruthenium(II) terpyridine complexes treatment was assessed at biochemical and histopathological levels. The serum concentrations of the biochemical markers ALT, AST, urea, and creatinine were obtained to evaluate the liver and renal functions. In addition, the histopathological changes in the target organs, liver, heart, lungs, and kidneys were evaluated.
BALB/c mice bearing syngeneic CT26 mouse colon carcinoma were selected as the test system, as this experimental model has been extensively used for this kind of research in the literature [47]. For heterotopic colon carcinoma model, 1 × 10^6 CT26 cells suspended in 100 μL of DMEM were injected subcutaneously into the left flank of mice. Tumor-bearing mice were examined every 3 days for tumor development and progression and monitoring body weight. Animals were randomized into 4 groups with 6 tumor-bearing mice that were ear-tagged and followed-up individually throughout the study. The intraperitoneal administration of complexes or saline began on sixth day after post-tumor inoculation. Each drug was administered at doses of 2 mg/kg dissolved in 200 μL saline, twice weekly for four times in total (Scheme 2).
To study the potential side effects of ruthenium(II) terpyridine complexes, treated mice were monitored for weight loss. […] Blood samples were collected from abdominal aorta of each mouse in tubes without anticoagulant, and a separated serum was processed and analyzed by the chemistry analyzer Roche Cobas Mira Plus. The levels of serum urea, creatinine, and liver enzymes—aspartate aminotransferase (AST) and alanine aminotransferase (ALT)—were determined to assess the renal and hepatic function. After sacrificed, organ weights of the heart, liver, lungs, and kidneys, as well as the tumors, were determined for each animal, and the relative organ weight was calculated as % body weight. The tissue sections of various organs (heart, liver, lungs, and kidneys) and tumor were isolated for histopathological analysis. The tissues fixed in 4% paraformaldehyde were embedded in paraffin, cut into thin sections and mounted on glass slides. The tissue sections were stained with hematoxylin and eosin for microscopic examination.

[15] = test system: SW480 cells; assay: LDH release assay, SW480; type: cell-based, human; conditions: SW480, 300 μM, 24 h
Method: as §5

[16] = test system: CT26 cells; assay: Annexin V-FITC/PI double staining, flow cytometry, CT26; type: cell-based, mouse; conditions: CT26, IC50 concentrations, 24 h
Method: as §6

lability of the chloride ligand in aqueous solution [10]	Structure (SMILES)	IC50 ([2]; 24 h exposure)	IC50 ([2]; 72 h exposure)	IC50 ([5]; 24 h exposure)	IC50 ([5]; 72 h exposure)	late apoptosis in HCT116 cells, in words [6]	IC50 [8]	LDH levels (LDH release, % of dead cells) [9]	IC50 ([11]; 24 h exposure)	IC50 ([11]; 72 h exposure)	tumor weights after necropsy versus vehicle-treated mice [12]	tumor growth inhibition (TGI) [12]	necrosis fields in primary tumor, histology [12]	cell cycle disturbance [13]	serum concentration of creatinine ([14]; tumor-bearing mice)	LDH levels (LDH release, % of dead cells) [15]	serum level of ALT ([14]; tumor-bearing mice)	serum level of AST compared to the control group ([14]; tumor-bearing mice)	other results
very labile	Clc1cc(-c2ccccn2)nc(-c2ccccn2)c1.NCCN.[Cl-].[Cl-].[Ru+2] [Ru-1, [Ru(Cl-tpy)(en)Cl][Cl]]	43.3 ± 3 µM	50.9 ± 4 µM	31.8 ± 2 µM	19.1 ± 1 µM	induced late apoptosis	32.8 to 66.3 µM	8.37%	50.4 ± 4 µM	44.7 ± 4 µM	markedly lower	53.41%	The largest part of the primary tumor of Ru-1-treated mice was necrotic	G2/M phase arrest	did not affect				log Po/w [1]: −1.33; time after which thiolate adduct with GSH became apparent in 1H NMR [3]: 6 h; LDH levels (LDH release, % of dead cells) [4]: 36.43%; cell cycle disturbance [7]: G2/M phase arrest; histological changes in kidney tissue [14]: hyaline cylinders and focal hyaline glomerular change; serum concentration of urea compared to saline-treated mice ([14]; tumor-bearing mice): did not affect; histological changes in heart tissue ([14]; in comparison with oxaliplatin and saline-treated mice): No significant histological changes
	O=C1[O][Pt]2([NH][C@@H]3CCCC[C@H]3[NH]2)[O]C1=O [Oxaliplatin, oxaliplatin, reference compound]	54.5 ± 4 µM	25.2 ± 2 µM	9.7 ± 8 µM	0.1 µM	induced late apoptosis		0%	100 ± 9 µM	1.3 µM	markedly lower	51.39%	no greater than the necrosis field in untreated mice tumors	G2/M phase arrest	did not affect	2.20%	no difference	no difference	apoptotic death of CT26 tumor cells, in words [16]: moderately induced apoptotic death
very labile	Clc1cc(-c2ccccn2)nc(-c2ccccn2)c1.NC1CCCCC1N.[Cl-].[Cl-].[Ru+2] [Ru-2, [Ru(Cl-tpy)(dach)Cl][Cl]]	167 ± 12 µM	148 ± 11 µM	50.4 ± 5 µM	20.4 ± 1 µM		72.8 to 111 µM	2.35%	156 ± 12 µM	86.4 ± 7 µM	slightly smaller than tumors from the control group, but without statistical significance	17.56%	larger compared to necrosis fields in the tumors of untreated mice and oxaliplatin-treated mice			33.07%	no difference	no difference	serum urea concentration, excess compared to all other groups ([14]; tumor-bearing mice): ~ 3 units
